Results as given in PubChem BioAssay (NCI).
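Method: 48-hour compound exposure of cells in 96-well plates, five concentrations, linear interpolation of endpoints. Abbreviation: GI50, concentration required for 50% inhibition of growth. TGI marks complete inhibition of growth.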

Experiments:
Assay in all cases: NCI tumour cell line growth inhibition, 48 h
MDA-MB-231 breast = tested on: MDA-MB-231 breast
LOX IMVI melanoma = tested on: LOX IMVI melanoma
SW-620 colon = tested on: SW-620 colon
HOP-62 NSCLC = tested on: HOP-62 NSCLC
HCT-15 colon = tested on: HCT-15 colon
T-47D breast = tested on: T-47D breast
A549 NSCLC = tested on: A549 NSCLC
EKVX NSCLC = tested on: EKVX NSCLC

Row | SMILES | GI50 (MDA-MB-231 breast) [µM] | TGI (MDA-MB-231 breast) [µM] | GI50 (LOX IMVI melanoma) [µM] | TGI (LOX IMVI melanoma) [µM] | GI50 (SW-620 colon) [µM] | TGI (SW-620 colon) [µM] | GI50 (HOP-62 NSCLC) [µM] | TGI (HOP-62 NSCLC) [µM] | GI50 (HCT-15 colon) [µM] | TGI (HCT-15 colon) [µM] | GI50 (T-47D breast) [µM] | TGI (T-47D breast) [µM] | GI50 (A549 NSCLC) [µM] | TGI (A549 NSCLC) [µM] | GI50 (EKVX NSCLC) [µM] | TGI (EKVX NSCLC) [µM]
1 | O=C1c2cccnc2-c2nc(-c3ccc([N+](=O)[O-])cc3)cc3c2c1nc1ccccc13 | 7.97 | > 100 | 2.28 | > 100 | 3.21 | 15.6 | 12.2 | 28.3 | 1.97 | 8.04 | 10.6 | 54.9 | 2.58 | 8.3 | 10.7 | 44.6
2 | O=C1c2cccc3cccc(c23)C(=O)N1CCCCOc1ccc(-c2nc3ccc(N4CCOCC4)cc3[nH]2)cc1 | 3.27 | 10.5 | 2.11 | 4.53 | 3.78 | 12.3 | 2.47 | 5.9 | 2.14 | 8.01 | 3.08 | 15.9 | 3.77 | > 84.4 | 17.6 | > 57.9
3 | COc1cc2c(/C=C3\C(=O)Nc4ccc(Br)cc43)c(Cl)n(C)c2cc1C | 2.63 | 10.5 | 1.44 | 6.7 | 3.09 | 15.4 | 0.813 | 4.47 | 1.92 | 8.06 | 30.8 | > 100 | 2.56 | 14.5 | 3.76 | 34.1
4 | Fc1ccc(Nc2nc(Nc3ccc(-c4nc5ccccc5[nH]4)cc3)nc(N3CCCC3)n2)cc1 | 1.87 | 4.35 | 1.77 | 3.55 | 1.87 | 3.7 | 2.12 | 5.09 | 2.25 | 6.03 | 2.28 | 5.58 | 3.07 | 9.1 | 2.27 | 12.8
5 | Cn1c2ccccc2c2c3c(c4c5ccccc5n(CCCCCC#N)c4c21)C(=O)N(O)C3=O | 2.34 | 7.92 | 0.167 | 1.24 | 0.732 | > 100 | 0.42 | 5.65 | 1.82 | 50.9 | 0.419 | 6.89 | 1.68 | 50.4 | 2.67 | > 100
6 | Cc1ccc(Cl)cc1Nc1nc(C(F)(F)F)ccc1C(=O)Oc1ccc(Cl)cc1 | 4.53 | 20.6 | 5.21 | 21.9 | 17 | > 100 | 8.88 | 23.1 | 10.9 | 30.8 | 6.53 | 42.2 | 4.86 | 20.5 | 7.26 | 22.8
7 | NC(=O)NC(=O)CI | 6.99 | 19.9 | 1.08 | 2.71 | 1.68 | 3.57 | 20.5 | 43.1 | 1.68 | 3.55 | 1.72 | 3.9 | 18.8 | 37.4 |  | 
8 | CCOC1NC(=O)Oc2ccccc21 (stereo not given) |  | > 100 |  | > 100 |  | > 100 |  | > 100 |  | > 100 |  |  |  | > 100 |  | > 100
9 | CN(C)/[N+]([O-])=N/Oc1cc(Nc2ccc(C(=O)O)cc2)c([N+](=O)[O-])cc1[N+](=O)[O-] | 17 | 31.3 | 19 | 33.6 | 45.4 | > 100 | 18 | 35 | 19.6 | 36.4 |  |  | 75 | > 100 | 20.1 | 46.8
10 | Cn1c(=O)c(Cc2ccc(F)cc2F)cc2cnc(NC3CCOCC3)nc21 | > 16.2 | > 25 | > 25 | > 25 | > 25 | > 25 | > 25 | > 25 | > 25 | > 25 | 9.47 | > 25 | > 25 | > 25 |  | 
11 | Oc1ccc2ccccc2c1/C=N\Nc1ccccn1 | 0.463 | > 43 | 0.275 |  | 0.588 | > 100 | 0.416 | 17 | 0.511 | > 100 | 0.97 | > 100 |  |  | 0.656 | > 21.6
12 | COc1ccc(-n2c(N)c(C(=O)NCCN3CCOCC3)c3nc4ccccc4nc32)cc1OC | 32.4 | > 100 | 5.69 | > 100 | 4.07 | > 100 |  |  | 15 | > 100 | 25 | > 100 | 6.08 | > 100 | 40.2 | > 100
13 | O=c1c2ccccc2nc(-c2ccc(Cl)cc2)n1O |  | > 100 |  |  |  | > 100 |  | 91.2 |  | > 100 |  | > 100 |  | > 100 |  | 77.9
14 | Cc1ccc(/C=C2\CCOC2=O)cc1 | > 100 | > 100 | > 100 | > 100 | > 100 | > 100 | > 100 | > 100 | > 100 | > 100 | > 100 | > 100 | > 100 | > 100 |  | 
15 | Cc1cc(S(N)(=O)=O)c(S/C(=N\NS(=O)(=O)c2ccc(Cl)cc2)c2ccc(Cl)cc2)cc1Cl | > 100 | > 100 | > 100 | > 100 | > 100 | > 100 | > 100 | > 100 | > 100 | > 100 |  |  | 49.1 | > 100 | > 100 | > 100
16 | O=C1NC(=NCCc2ccccc2Cl)S/C1=C\c1ccc2ncccc2c1 | 10.3 | > 25 | 1.57 | > 25 | 1.09 | > 25 | 6.26 | > 25 | 1.18 | > 25 | 7.34 | > 25 | 5.16 | > 25 |  | 
17 | CCCCCCCCSC1=CC(=O)C(OC)=C(OC)C1=O | 3.5 | 8.16 | 0.767 | 2.11 | 1.71 | 3.37 | 11.1 | 24.4 | 2.27 | 8.58 |  |  | 5.49 | 18.5 | 10.1 | 24.8
